Converted amounts (≈) assume the structure as drawn.
What was measured:
HeLa = assay: Cytotoxicity against human HeLa cells; format: cell-based
Trichomonas vaginalis [1] = assay: Antitrichomonas activity against metronidazole-resistant Trichomonas vaginalis ATCC 50143; format: functional
Trichomonas vaginalis [2] = assay: Antitrichomonas activity against metronidazole-susceptible Trichomonas vaginalis; format: functional
Spermatozoa = assay: Spermicidal activity against human spermatozoa assessed as immobilization measured for 60 seconds; format: functional; design: concentration or dose not given beside the values
[3] = Toxicity against Lactobacillus jensenii ATCC 25258
Trichomonas vaginalis [4] = assay: Ratio of MIC for metronidazole to compound for metronidazole-susceptible Trichomonas vaginalis; format: functional
Trichomonas vaginalis [5] = assay: Ratio of MIC for metronidazole to compound for metronidazole-resistant Trichomonas vaginalis ATCC 50143; format: functional

Row | SMILES | IC50 (HeLa) [µg/mL] | MIC (Trichomonas vaginalis [1]) [µM] | MIC (Trichomonas vaginalis [2]) [µM] | Activity (Spermatozoa) [%] | IC50 [3] [µg/mL] | Ratio (Trichomonas vaginalis [4]) | Ratio (Trichomonas vaginalis [5])
1 | Cc1ncc([N+](=O)[O-])n1CCSC(=S)N1CCC(Cc2ccccc2)CC1 | > 1000 | 49.5 (≈ 20 µg/mL) | 12.4 (≈ 5.02 µg/mL) | 100 | > 1000 |  | 
2 | Cc1ncc([N+](=O)[O-])n1CCSC(=S)N1CCC(OC(=O)CN2CCOCC2)CC1 | 840 (≈ 1840 µM) | 54.7 (≈ 25 µg/mL) | 1.36 (≈ 0.622 µg/mL) | <100 | > 1000 |  | 
3 | Cc1ncc([N+](=O)[O-])n1CCO [METRONIDAZOLE] | > 1000 | 292 (≈ 50 µg/mL) | 11.7 (≈ 2 µg/mL) | <100 | > 1000 |  | 
4 | Cc1ncc([N+](=O)[O-])n1CCSC(=S)N1CCC(OC(=O)CN2CCCCC2)CC1 | 760 (≈ 1670 µM) | 54.9 (≈ 25 µg/mL) | 1.37 (≈ 0.624 µg/mL) | <100 | > 1000 |  | 
5 | Cc1ncc([N+](=O)[O-])n1CCSC(=S)N1CCC2(CC1)OCCO2 | > 1000 | 26.9 (≈ 10 µg/mL) | 1.9 (≈ 0.708 µg/mL) | <100 | > 1000 |  | 
6 | Cc1ncc([N+](=O)[O-])n1CCSC(=S)N1CCC(OC(=O)CSC(=S)N2CCCCC2)CC1 | 980 (≈ 1840 µM) | 37.7 (≈ 20 µg/mL) | 2.35 (≈ 1.25 µg/mL) | <100 | > 1000 |  | 
7 | Cc1ncc([N+](=O)[O-])n1CCSC(=S)N1CCC(OC(=O)CSC(=S)N2CCCC2)CC1 | > 1000 | 96.7 (≈ 50.1 µg/mL) | 2.41 (≈ 1.25 µg/mL) | <100 | > 1000 |  | 
8 | Cc1ncc([N+](=O)[O-])n1CCSC(=S)N1CCCCC1C (stereo not drawn) | 170 (≈ 518 µM) | 15.2 (≈ 4.99 µg/mL) | 1.9 (≈ 0.624 µg/mL) | 100 | > 1000 | 3 | 10
9 | Cc1ncc([N+](=O)[O-])n1CCSC(=S)N1CCCC(C)C1 (stereo not drawn) | 170 (≈ 518 µM) | 15.2 (≈ 4.99 µg/mL) | 1.9 (≈ 0.624 µg/mL) | 100 | > 1000 | 3 | 10
10 | Cc1ncc([N+](=O)[O-])n1CCSC(=S)N1CCC(O)CC1 | 930 (≈ 2810 µM) | 30.3 (≈ 10 µg/mL) | 1.41 (≈ 0.466 µg/mL) | 100 | 350 (≈ 1060 µM) |  | 
11 | Cc1ncc([N+](=O)[O-])n1CCSC(=S)N1CCC(OC(=O)C(Cl)Cl)CC1 | > 1000 | 56.7 (≈ 25 µg/mL) | 1.53 (≈ 0.675 µg/mL) | 100 | 740 (≈ 1680 µM) |  | 
12 | Cc1ncc([N+](=O)[O-])n1CCSC(=S)N1C(C)CCCC1C (stereo not drawn) | 130 (≈ 380 µM) | 29.2 (≈ 10 µg/mL) | 1.83 (≈ 0.627 µg/mL) | 100 | > 1000 | 3 | 10
13 | CCOC(=O)C1CCN(C(=S)SCCn2c([N+](=O)[O-])cnc2C)CC1 | 510 (≈ 1320 µM) | 64.8 (≈ 25 µg/mL) | 3.24 (≈ 1.25 µg/mL) | 100 | > 1000 |  | 
14 | Cc1ncc([N+](=O)[O-])n1CCSC(=S)N1CCC(C)CC1 | 190 (≈ 578 µM) | 14.3 (≈ 4.7 µg/mL) | 1.03 (≈ 0.338 µg/mL) | 100 | > 1000 | 10 | 20
15 | CCC1CCCCN1C(=S)SCCn1c([N+](=O)[O-])cnc1C (stereo not drawn) | 94 (≈ 274 µM) | 14.6 (≈ 5 µg/mL) | 3.65 (≈ 1.25 µg/mL) | 100 | > 1000 | 3 | 10
16 | Cc1ncc([N+](=O)[O-])n1CCSC(=S)N1CCC(C#N)(c2ccccc2)CC1 | > 1000 | 24.1 (≈ 10 µg/mL) | 1.68 (≈ 0.698 µg/mL) | <100 | > 1000 |  | 
17 | CCCCCCCCCc1ccc(OCCOCCOCCOCCOCCOCCOCCOCCOCCO)cc1 [NONOXYNOL 9] | 33 (≈ 53.5 µM) |  |  | 100 | 33 (≈ 53.5 µM) |  | 
18 | Cc1ncc([N+](=O)[O-])n1CCSC(=S)N1CCC(=O)CC1 | > 1000 | 30.5 (≈ 10 µg/mL) | 1.89 (≈ 0.621 µg/mL) | <100 | 380 (≈ 1160 µM) |  | 
19 | Cc1ncc([N+](=O)[O-])n1CCSC(=S)N1CCC(OC(=O)CCl)CC1 | 930 (≈ 2290 µM) | 246 (≈ 100 µg/mL) | 49.3 (≈ 20.1 µg/mL) | 100 | 590 (≈ 1450 µM) |  | 
20 | Cc1ncc([N+](=O)[O-])n1CCSC(=S)N1CCC(OS(C)(=O)=O)CC1 | > 1000 | 61.3 (≈ 25 µg/mL) | 12.4 (≈ 5.07 µg/mL) | 100 | > 1000 |  | 
